{"source": "patent US20240116898A1", "about": "“NOVEL GLUTAMINYL CYCLASE INHIBITORS AND THE USE THEREOF IN TREATMENT OF VARIOUS DISEASES” (LTD \"VALENTA-INTELLEKT\", priority 2017, published 2024)", "key": {"[1]": {"system": "specific pain reaction by chemical irritation of the peritoneum in Balb/c mice", "assay": "Abdominal constriction test (acetic acid) in mice", "type": "in vivo, mouse", "description": "The model of the specific pain reaction by the method of chemical stimulation of peritoneum (“abdominal constriction” test) was carried out according to the standard procedure. To conduct the “abdominal constriction” test, Balb/c mice were intraperitoneally administered with 1% acetic acid in a volume of 10 ml per kg of the animal body weight. […] A quantity of constrictions (convulsive twitching of the abdominal muscles accompanied with stretching hind quarters and arching) was evaluated 15 minutes after the administration of acetic acid."}, "[2]": {"system": "formaldehyde-induced pharyngitis in rats", "assay": "Rat model of non-infectious pharyngitis (Evans blue exudation)", "type": "in vivo", "procedure": "The rats were anesthetized with sodium thiopentone (50 mg/kg, intraperitoneally) and a cannula with a RenaSil® silicone rubber tube (SIL 037, Braintree Scientific, Inc., Braintree, MA) was inserted into the external jugular vein using a heparinized saline solution (40 U/ml).\nThe Evans Blue dye (Evans Blue, EB) (30 mg/kg) was administered to all the animals intravenously through a catheter; 10 minutes after the EB dye was administered, a 30% formalin solution was applied to the surface of the pharyngeal mucosa as follows: the tongue was slightly pulled out, the pharyngeal area was opened deep in the mouth with blunt forceps and gently, using a sterile cotton pad, the formation solution (50 μl) was applied for 5 seconds each time it is applied. In the intact group thephysiologicla solution was used.\n60 minutes after the application of 30% formalin solution, the animals were euthanized by the exsanguination. The head of each rat was perfused with the heparinized saline solution (40 U/ml) to remove the intravascular EB dye.\nThe degree of the inflammation was assessed by the exudation test of the Evans blue (EB) dye. […] The amount of dye in the fabric was calculated using the standard curve for the Evans blue dye, and was expressed in micrograms of the dye per gram of wet fabric weight (μg/g).\nThe formaldehyde solution with a concentration of 30% was adminstered to the control group."}, "[3]": {"system": "thermal pain irritation hot plate in Balb/c mice", "conditions": "mouse, in vivo", "description": "The model of thermal pain irritation “hot plate” was carried out according to the standard procedure [Barrot M. Tests and models of nociception and pain in rodents. […] After 1 hour after the administration of the preparation, the “hot plate” test was carried out. To conduct the “hot plate” test, the mice were placed on the hot plate, the temperature (+55±1° C.) of which is constant.\nThe time of first manifestations of the pain response in mice (paw licking, jumping) was registered and the mean latent time of the threshold of pain sensitivity (TPS, sec) in each group was calculated."}, "[4]": {"system": "carrageenan-induced rat paw edema", "assay": "Carrageenan-induced rat paw edema", "type": "in vivo", "conditions": "8 mg/kg, 2 hours after carrageenan", "description": "Experiments were performed on male white nonlinear rats weighing 250-270 g."}, "[5]": {"conditions": "0.3 mg/kg intragastric 1 hour before acetic acid"}}}
{"smiles": "CC(C)(CC(=O)NCCc1cnc[nH]1)CC(=O)NCCc1cnc[nH]1", "note": "[Compound IX, N,N′-bis[2-(1H-imidazol-4-yl)ethyl]-3,3-dimethylpentanediamide]", "values": [{"measurement": "Quantity of constrictions for 15 minutes", "setting": "[1]; [5]", "value": "11.6 ± 3.5"}]}
{"smiles": "O=C(c1ccccc1)c1ccc2n1CCC2C(=O)O", "note": "(stereo not drawn) [Ketorol, reference compound]", "values": [{"measurement": "Quantity of constrictions for 15 minutes", "setting": "[1]; 15 mg/kg", "value": "23.60 ± 1.87"}]}
{"smiles": "O=C(NCCc1cnc[nH]1)C(=O)NCCc1cnc[nH]1", "note": "[Compound I, N,N′-bis[2-(1H-imidazol-4-yl)ethyl]oxalamide]", "values": [{"measurement": "Decrease of the concentration of dye in the tissue compared to the control", "setting": "[2]; 6 mg/kg", "value": 2.8, "unit": "times"}, {"measurement": "Decrease of the concentration of dye in the tissue compared to the control", "setting": "[2]; 18 mg/kg", "value": 6.4, "unit": "times"}, {"measurement": "Duration of the pharmacological effect", "setting": "[3]", "value": "at least 24 hours"}]}
{"smiles": "O=C(O)Cc1ccccc1Nc1c(Cl)cccc1Cl", "note": "[Diclofenac, reference compound]", "values": [{"measurement": "Effect on pharyngitis inflammation (dye concentration)", "setting": "[2]; 8 mg/kg", "value": "no effect"}, {"measurement": "The concentration of the dye in the tissue", "setting": "[2]; 8 mg/kg intragastric 24 h and 1 h before formaldehyde", "value": "0.112 ± 0.031", "unit": "µg/mg"}, {"measurement": "Inhibition of edema growth", "setting": "[4]", "value": 42, "unit": "%"}]}
{"smiles": "O=C(CCCCC(=O)NCCc1cnc[nH]1)NCCc1cnc[nH]1", "note": "[Compound VII, N,N′-bis[2-(1H-imidazol-4-yl)ethyl]adipamide]", "values": [{"measurement": "Quantity of constrictions for 15 minutes", "setting": "[1]; [5]", "value": "17.6 ± 2.81"}]}
